Assays:
[1] = test system: rice; experiment: Test B flood test rice; format: in vivo, Oryza sativa
Procedure, shortened: (§1)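 Read-out is a visual response score from 0 (no effect) to 10 (complete control), assigned by comparison with untreated controls. Treatment was applied at the 2-leaf stage, and plants stayed in the greenhouse for twelve to sixteen days before scoring.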

[2] = test system: morningglory; experiment: Test B pre/postemergence morningglory; format: in vivo, Ipomoea hederacea
Procedure, shortened: (§2)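 Response is a visual 0-to-10 score relative to untreated plants, where 0 means no effect and 10 means complete control, taken twelve to sixteen days after application. Treatments went onto soil at planting and onto foliage of 1- to 4-leaf plants, using a surfactant-containing non-phytotoxic solvent.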

[3] = test system: smallflower flatsedge; experiment: Test B flood test smallflower flatsedge; format: in vivo, Cyperus difformis
Procedure, shortened: as §1

[4] = test system: rape; experiment: Test B pre/postemergence rape; format: in vivo, Brassica napus
Procedure, shortened: as §2

[5] = test system: bamyardgrass; experiment: Test B flood test barnyardgrass; format: in vivo, Echinochloa crus-galli
Procedure, shortened: as §1

[6] = test system: blackgrass; experiment: Test B pre/postemergence blackgrass; format: in vivo, Alopecurus myosuroides
Procedure, shortened: as §2

[7] = test system: sugar beet; experiment: Test B pre/postemergence sugar beet; format: in vivo, Beta vulgaris
Procedure, shortened: as §2

[8] = test system: corn; experiment: Test B pre/postemergence corn; format: in vivo, Zea mays
Procedure, shortened: as §2

[9] = test system: bedstraw; experiment: Test B pre/postemergence bedstraw; format: in vivo, Galium aparine
Procedure, shortened: as §2

[10] = test system: wild oat; experiment: Test B pre/postemergence wild oat; format: in vivo, Avena fatua
Procedure, shortened: as §2

[11] = test system: surinam grass; experiment: Test B pre/postemergence surinam grass; format: in vivo, Brachiaria decumbens
Procedure, shortened: as §2

[12] = test system: crabgrass; experiment: Test B pre/postemergence crabgrass; format: in vivo, Digitaria sanguinalis
Procedure, shortened: as §2

[13] = test system: pigweed; experiment: Test B pre/postemergence pigweed; format: in vivo, Amaranthus retroflexus
Procedure, shortened: as §2

[14] = test system: cocklebur; experiment: Test B pre/postemergence cocklebur; format: in vivo, Xanthium strumarium
Procedure, shortened: as §2

[15] = test system: velvetleaf; experiment: Test B pre/postemergence velvetleaf; format: in vivo, Abutilon theophrasti
Procedure, shortened: as §2

[16] = test system: giant foxtail; experiment: Test B pre/postemergence giant foxtail; format: in vivo, Setaria faberii
Procedure, shortened: as §2

[17] = Rate 62 g/ha, headed Pre-emergence (flood test species), scale 0 to 10 (0 no effect, 10 complete control)
[18] = Rate 125 g/ha, Pre-emergence, flood test species, scale 0 to 10 where 0 is no effect and 10 is complete control
[19] = Rate 250 g/ha, Pre-emergence, flood-test species, scale 0 to 10, 0 is no effect, 10 is complete control
[20] = Rate 500 g/ha, headed Pre-emergence (flood test species), scale 0 to 10 (0 no effect, 10 complete control)
[21] = Preemergence, Rate 62 g/ha, scale of 0 to 10 where 0 is no effect and 10 is complete control
[22] = Preemergence, Rate 125 g/ha, 0 is no effect, 10 is complete control
[23] = Preemergence, Rate 250 g/ha, scale 0 to 10, 0 is no effect, 10 is complete control
[24] = Preemergence, Rate 500 g/ha, scale 0 to 10 (0 no effect, 10 complete control)
[25] = Rate 62 g/ha, Postemergence, scale of 0 to 10 where 0 is no effect and 10 is complete control
[26] = Rate 125 g/ha, Postemergence, scale 0 to 10
[27] = Rate 500 g/ha, Postemergence, scale 0 to 10

CCN(Cc1ccncc1)C(=O)n1oc(=O)n(C(C)C)c1=O [Compound 189]
4: Blackgrass plant response rating (0 to 10 scale) [6, 22] | Blackgrass plant response rating [6, 23]
3: Wild oats plant response rating [10, 23] | Wild oats plant response rating [10, 24] | B. signalgrass plant response rating [11, 21] | B. signalgrass plant response rating [11, 23] | Crabgrass plant response rating [12, 24] | Giant foxtail plant response rating [16, 23]
0: Rice plant response rating [1, 17] | Rice plant response rating [1, 18] | Rice plant response rating [1, 19] | Plant response rating, Rice [1, 20] | Morningglory plant response rating [2, 21] | Morningglory plant response rating (0 to 10 scale) [2, 22] | Morningglory plant response rating [2, 23] | Morningglory plant response rating [2, 24] | Morningglory plant response rating [2, 25] | Morningglory plant response rating [2, 26] | Plant response rating (0 to 10; 0 is no effect, 10 is complete control), Morningglory ([2]; Rate 250 g/ha, Postemergence) | Morningglory plant response rating [2, 27] | S. Flatsedge plant response rating [3, 17] | S. Flatsedge plant response rating [3, 18] | S. Flatsedge plant response rating [3, 19] | S. Flatsedge plant response rating ([3]; Rate 500 g/ha, Pre-emergence, flood test species, scale 0 to 10 (0 no effect, 10 complete control)) | Rape plant response rating [4, 21] | Rape plant response rating (0 to 10 scale) [4, 22] | Rape plant response rating [4, 23] | Rape plant response rating [4, 24] | Rape plant response rating [4, 25] | Rape plant response rating [4, 26] | Plant response rating (0 to 10; 0 is no effect, 10 is complete control), Rape ([4]; Rate 250 g/ha, Postemergence) | Rape plant response rating [4, 27] | Barnyardgrass plant response rating [5, 17] | Barnyardgrass plant response rating [5, 18] | Barnyardgrass plant response rating [5, 19] | Plant response rating, Barnyardgrass [5, 20] | Blackgrass plant response rating [6, 25] | Blackgrass plant response rating [6, 26] | Plant response rating (0 to 10; 0 is no effect, 10 is complete control), Blackgrass ([6]; Rate 250 g/ha, Postemergence) | Blackgrass plant response rating [6, 27] | Sugarbeets plant response rating [7, 21] | Sugarbeets plant response rating (0 to 10 scale) [7, 22] | Sugarbeets plant response rating [7, 23] | Sugarbeets plant response rating [7, 24] | Sugarbeets plant response rating [7, 25] | Sugarbeets plant response rating [7, 26] | Plant response rating (0 to 10; 0 is no effect, 10 is complete control), Sugarbeets ([7]; Rate 250 g/ha, Postemergence) | Sugarbeets plant response rating [7, 27] | Corn plant response rating [8, 21] | Corn plant response rating (0 to 10 scale) [8, 22] | Corn plant response rating [8, 23] | Corn plant response rating [8, 24] | Corn plant response rating [8, 25] | Corn plant response rating [8, 26] | Plant response rating (0 to 10; 0 is no effect, 10 is complete control), Corn ([8]; Rate 250 g/ha, Postemergence) | Corn plant response rating [8, 27] | Bedstraw plant response rating [9, 21] | Bedstraw plant response rating (0 to 10 scale) [9, 22] | Bedstraw plant response rating [9, 23] | Bedstraw plant response rating [9, 24] | Bedstraw plant response rating [9, 25] | Bedstraw plant response rating [9, 26] | Plant response rating (0 to 10; 0 is no effect, 10 is complete control), Bedstraw ([9]; Rate 250 g/ha, Postemergence) | Bedstraw plant response rating [9, 27] | Wild oats plant response rating [10, 21] | Wild oats plant response rating [10, 25] | Wild oats plant response rating [10, 26] | Plant response rating (0 to 10; 0 is no effect, 10 is complete control), Wild oats ([10]; Rate 250 g/ha, Postemergence) | B. signalgrass plant response rating [11, 25] | B. signalgrass plant response rating ([11]; Rate 125 g/ha, Postemergence, scale 0 (no effect) to 10 (complete control)) | Plant response rating, B. signalgrass ([11]; Rate 250 g/ha, Postemergence, scale 0 to 10, 0 is no effect, 10 is complete control) | B. signalgrass plant response rating ([11]; Rate 500 g/ha, Postemergence, scale 0 to 10, 0 no effect, 10 complete control) | Crabgrass plant response rating [12, 21] | Crabgrass plant response rating (0 to 10 scale) [12, 22] | Crabgrass plant response rating [12, 23] | Crabgrass plant response rating [12, 25] | Crabgrass plant response rating [12, 26] | Plant response rating (0 to 10; 0 is no effect, 10 is complete control), Crabgrass ([12]; Rate 250 g/ha, Postemergence) | Crabgrass plant response rating [12, 27] | Redroot pigweed plant response rating [13, 21] | Redroot pigweed plant response rating (0 to 10 scale) [13, 22] | Redroot pigweed plant response rating [13, 23] | Redroot pigweed plant response rating [13, 24] | Redroot pigweed plant response rating [13, 25] | Redroot pigweed plant response rating [13, 26] | Plant response rating (0 to 10; 0 is no effect, 10 is complete control), Redroot pigweed ([13]; Rate 250 g/ha, Postemergence) | Redroot pigweed plant response rating [13, 27] | Cocklebur plant response rating (0 to 10 scale) [14, 22] | Cocklebur plant response rating [14, 23] | Cocklebur plant response rating [14, 24] | Cocklebur plant response rating [14, 25] | Cocklebur plant response rating [14, 26] | Plant response rating (0 to 10; 0 is no effect, 10 is complete control), Cocklebur ([14]; Rate 250 g/ha, Postemergence) | Cocklebur plant response rating [14, 27] | Velvetleaf plant response rating [15, 21] | Velvetleaf plant response rating [15, 23] | Velvetleaf plant response rating [15, 24] | Velvetleaf plant response rating [15, 25] | Velvetleaf plant response rating [15, 26] | Plant response rating (0 to 10; 0 is no effect, 10 is complete control), Velvetleaf ([15]; Rate 250 g/ha, Postemergence) | Giant foxtail plant response rating [16, 21] | Giant foxtail plant response rating (0 to 10 scale) [16, 22] | Giant foxtail plant response rating [16, 25] | Giant foxtail plant response rating [16, 26] | Plant response rating (0 to 10; 0 is no effect, 10 is complete control), Giant foxtail ([16]; Rate 250 g/ha, Postemergence) | Giant foxtail plant response rating [16, 27]
7: Blackgrass plant response rating [6, 24]
6: B. signalgrass plant response rating [11, 24] | Giant foxtail plant response rating [16, 24]
1: Blackgrass plant response rating [6, 21]

Source: patent US6737383B1, “Herbicidal oxadiazolidines” (priority 1999, dated 2004)
